Experimental findings from ChEMBL document CHEMBL2034870, “Activity landscape modeling of PPAR ligands with dual-activity difference maps” (Bioorg Med Chem, 2012) are described below.

The target of test [1] is T1, Peroxisome proliferator-activated receptor delta (Homo sapiens, UniProt Q03181).
T1 sequence (Q03181 whole entry): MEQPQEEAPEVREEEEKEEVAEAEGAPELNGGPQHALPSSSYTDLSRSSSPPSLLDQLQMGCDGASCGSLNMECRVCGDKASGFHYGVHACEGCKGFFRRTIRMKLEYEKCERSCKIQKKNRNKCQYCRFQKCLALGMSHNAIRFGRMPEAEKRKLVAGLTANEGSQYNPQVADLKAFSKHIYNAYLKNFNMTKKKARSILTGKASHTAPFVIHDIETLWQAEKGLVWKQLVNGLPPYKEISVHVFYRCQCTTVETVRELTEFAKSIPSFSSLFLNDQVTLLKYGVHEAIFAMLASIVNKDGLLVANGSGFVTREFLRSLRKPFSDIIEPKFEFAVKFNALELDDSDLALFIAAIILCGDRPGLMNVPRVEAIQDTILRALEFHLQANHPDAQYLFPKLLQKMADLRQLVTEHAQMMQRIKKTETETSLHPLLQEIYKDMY
The test is classed as functional.

Test [2] deals with T2, Peroxisome proliferator-activated receptor alpha (Homo sapiens, UniProt Q07869).
T2 sequence (Q07869 whole entry): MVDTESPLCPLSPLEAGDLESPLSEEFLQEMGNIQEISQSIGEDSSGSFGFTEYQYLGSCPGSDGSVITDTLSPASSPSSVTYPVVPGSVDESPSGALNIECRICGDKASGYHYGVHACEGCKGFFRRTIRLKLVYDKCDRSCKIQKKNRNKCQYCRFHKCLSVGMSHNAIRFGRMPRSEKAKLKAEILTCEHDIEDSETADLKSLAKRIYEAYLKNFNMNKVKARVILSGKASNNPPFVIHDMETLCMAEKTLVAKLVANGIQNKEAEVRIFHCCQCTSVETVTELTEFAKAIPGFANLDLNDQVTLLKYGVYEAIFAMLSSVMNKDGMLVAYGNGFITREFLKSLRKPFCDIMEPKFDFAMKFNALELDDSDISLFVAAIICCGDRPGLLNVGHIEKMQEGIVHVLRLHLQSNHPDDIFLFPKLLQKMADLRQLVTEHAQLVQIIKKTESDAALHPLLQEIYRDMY
The format is functional.

Consider `CCCc1cc(OC2CCCC2)ccc1OCCCOc1cccc([C@@H]2SC(=O)NC2=O)c1`, for which the IC50 in test [1] (read-out: pIC50 (converted)) was 920 nM. In the case of `CCCO[C@H](Cc1ccc2c(ccn2Cc2nc(-c3ccc(C(F)(F)F)cc3)oc2C)c1)C(=O)O`, in test [2] (read-out: pIC50 (converted)), the IC50 is 40 nM. `CC(C)Cc1cc(Oc2ccccc2)ccc1OCCCOc1ccc([C@@H]2SC(=O)NC2=O)cc1`: the IC50 in test [2] (read-out: IC50) was determined as 340 nM; in test [1] (read-out: IC50) it was 160 nM. Consider `Cc1oc(-c2ccccc2)nc1CCOc1ccc(C[C@H](Oc2ccccc2)C(=O)O)cc1`, for which the values for the IC50 in test [2] (read-out: IC50) and in test [1] (read-out: IC50) were 1110 nM and 7040 nM, respectively. Take `O=C(O)[C@@H]1CCc2ccc(OCCCOc3ccc(OCC(F)(F)F)cc3Cl)cc2O1`: the IC50 in test [2] (read-out: IC50) was 810 nM; in test [1] (read-out: IC50), 6900 nM. For the compound `Cc1oc(-c2ccc(C(F)(F)F)cc2)nc1Cn1ccc2cc(C[C@@H](OC(C)C)C(=O)O)ccc21`, the IC50 in test [2] (read-out: pIC50 (converted)) is 61 nM; in test [1] (read-out: pIC50 (converted)), 891 nM. With `CCCc1cc(Oc2ccc(O)cc2)ccc1OCCCOc1cccc([C@@H]2SC(=O)NC2=O)c1`, the IC50 in test [1] (read-out: IC50) turned out to be 3800 nM. Regarding `CCCc1cc(C(=O)c2ccccc2)ccc1OCCCOc1cccc([C@@H]2SC(=O)NC2=O)c1`, in test [1] (read-out: pIC50 (converted)), the IC50 is 170 nM.

Consider `CCCc1c(OCCCSc2ccc(CC(=O)O)cc2Cl)ccc(/C(CC)=N\O)c1O`, for which the IC50 in test [2] (read-out: pIC50 (converted)) is 100 nM; in test [1] (read-out: pIC50 (converted)), 10 nM. `O=C1NC(=O)[C@H](c2cccc(OCCCOc3ccc(Oc4ccccc4)cc3)c2)S1`: the IC50 in test [1] (read-out: pIC50 (converted)) is 190 nM. Consider `CC[C@@](Cc1ccc(OCCc2nc(-c3ccccc3)oc2C)cc1)(Oc1ccccc1)C(=O)O`, for which the IC50 is 473 nM in test [2] (read-out: pIC50 (converted)) and 5070 nM in test [1] (read-out: pIC50 (converted)). `CCO[C@H](Cc1ccc2c(c1)cc(C)n2Cc1nc(-c2ccc(C(F)(F)F)cc2)oc1C)C(=O)O`: the IC50 in test [2] (read-out: pIC50 (converted)) was 352 nM; in test [1] (read-out: pIC50 (converted)) it was 372 nM. Take `CCCc1cc(-c2ccccc2)ccc1OCCCOc1cccc([C@@H]2OC(=O)NC2=O)c1`: in test [1] (read-out: pIC50 (converted)), the IC50 is 1510 nM. With `CCCn1c(CCCc2ccc(OC(C)(C)C(=O)O)cc2)nn([C@H](C)c2ccccc2)c1=O`, the results for the IC50 in test [2] (read-out: pIC50 (converted)) and in test [1] (read-out: pIC50 (converted)) were 220 nM and 1500 nM, respectively. As to `CCCC[C@@](Cc1ccc(OCCc2nc(-c3ccccc3)oc2C)cc1)(Oc1ccccc1)C(=O)O`, the IC50 was determined as 1850 nM in test [2] (read-out: IC50) and 7230 nM in test [1] (read-out: IC50). In the case of `CCCc1cc(-c2noc3ccccc23)ccc1OCCCOc1cccc([C@@H]2SC(=O)NC2=O)c1`, the IC50 in test [1] (read-out: pIC50 (converted)) was 140 nM.

For `CCCc1cc(C2CCCC2)ccc1OCCCOc1cccc([C@H]2OC(=O)NC2=O)c1`, the IC50 in test [1] (read-out: pIC50 (converted)) was 3850 nM. `CCO[C@@H](Cc1cccc2c1ccn2Cc1nc(-c2ccccc2)oc1C)C(=O)O`: the IC50 was 125 nM in test [2] (read-out: pIC50 (converted)) and 3500 nM in test [1] (read-out: pIC50 (converted)).
